Experimental data reported in ChEMBL document CHEMBL4814079, “Structure-Activity Relationship for the Picolinamide Antibacterials that Selectively Target Clostridioides difficile” (ACS Med Chem Lett, 2021).
Converted amounts (≈) assume the structure as drawn.

Tests used:
HeLa = assay: Cytotoxicity against human HeLa cells assessed as reduction in cell viability incubated for 16 hrs by XTT assay; format: cell-based
[1] = Selectivity index, ratio of MIC of […] Staphylococcus aureus ATCC 29213 to MIC of Clostridium difficile ATCC 43255; format: functional
Clostridioides difficile = assay: Antibacterial activity against Clostridium difficile ATCC 43255 assessed as reduction in bacterial growth measured after 48 hrs by CLSI based broth microdilution method; format: functional
Staphylococcus aureus = assay: Antibacterial activity against […] Staphylococcus aureus ATCC 29213 assessed as reduction in bacterial growth measured after 48 hrs by CLSI based broth microdilution method; format: functional
[2] = Plasma concentration in CD1 mouse at 10 mg/kg, po measured upto 8 hrs by LC-MS/MS analysis; format: ADME, organism-based; details: in vivo, BLD = below limit of detection
Fusobacterium nucleatum = assay: Antibacterial activity against gut Fusobacterium nucleatum HM-992 assessed as reduction in bacterial growth measured after 48 hrs by CLSI based broth microdilution method; format: organism-based; details: in vitro
Bacteroides fragilis = assay: Antibacterial activity against gut Bacteroides fragilis HM-709 assessed as reduction in bacterial growth measured after 48 hrs by CLSI based broth microdilution method; format: organism-based; details: in vitro
Bifidobacterium longum = assay: Antibacterial activity against gut Bifidobacterium longum HM-846 assessed as reduction in bacterial growth measured after 48 hrs by CLSI based broth microdilution method; format: organism-based
Lactobacillus gasseri = assay: Antibacterial activity against gut Lactobacillus gasseri HM-664 assessed as reduction in bacterial growth measured after 48 hrs by CLSI based broth microdilution method; format: organism-based; details: in vitro
[3] = Ratio of drug excretion in CD-1 mouse feces to MIC for antibacterial activity against Clostridium difficile ATCC 43255; format: toxicity; details: in vivo
Eubacterium sp. = assay: Antibacterial activity against gut Eubacterium sp. HM-178 assessed as reduction in bacterial growth measured after 48 hrs by CLSI based broth microdilution method; format: organism-based
Corynebacterium = assay: Antibacterial activity against gut Corynebacterium HM-784 assessed as reduction in bacterial growth measured after 48 hrs by CLSI based broth microdilution method; format: organism-based
Enterococcus faecium = assay: Antibacterial activity against Enterococcus faecium ATCC 19434 assessed as reduction in bacterial growth measured after 48 hrs by CLSI based broth microdilution method; format: functional
[4] = Antibacterial activity against gut Limosilactobacillus-reuteri HM-102 assessed as reduction in bacterial growth measured after 48 hrs by CLSI based broth microdilution method
Veillonella = assay: Antibacterial activity against gut Veillonella sp HM-49 assessed as reduction in bacterial growth measured after 48 hrs by CLSI based broth microdilution method; format: organism-based; details: in vitro
[5] = Drug excretion in CD1 mouse feces at 10 mg/kg, po measured upto 8 hrs by LC-MS/MS analysis; format: ADME, organism-based; details: in vivo
[6] = Plasma concentration in CD1 mouse at 20 mg/kg, po measured upto 8 hrs by LC-MS/MS analysis; format: ADME, organism-based; details: in vivo, BLD = below limit of detection
[7] = Drug excretion in CD1 mouse feces at 20 mg/kg, po measured upto 8 hrs by LC-MS/MS analysis; format: ADME, organism-based; details: in vivo

O=C(Nc1ncco1)c1cc(-c2cc(F)cc(F)c2)ccn1
IC50 (HeLa): 40.1 µg/mL (≈ 133 µM) | Ratio [1]: 64 | MIC (Clostridioides difficile): 1 µg/mL (≈ 3.32 µM) | MIC (Staphylococcus aureus): 64 µg/mL (≈ 212 µM)

O=C(Nc1ncco1)c1cc(-c2ccc(Cl)c(Cl)c2)ccn1
IC50 (HeLa): 95.2 µg/mL (≈ 285 µM) | Cp [2]: Bld | MIC (Fusobacterium nucleatum): 8 µg/mL (≈ 23.9 µM) | MIC (Bacteroides fragilis): 4 µg/mL (≈ 12 µM) | MIC (Bifidobacterium longum): > 16 µg/mL | MIC (Lactobacillus gasseri): > 16 µg/mL | Ratio [1]: 1024 | Ratio [3]: 6.6 | MIC (Eubacterium sp.): 8 µg/mL (≈ 23.9 µM) | MIC (Clostridioides difficile): 0.125 µg/mL (≈ 0.374 µM) | MIC (Corynebacterium): 16 µg/mL (≈ 47.9 µM) | MIC (Enterococcus faecium): ≥ 128 µg/mL | MIC [4]: 4 µg/mL (≈ 12 µM) | MIC (Veillonella): 16 µg/mL (≈ 47.9 µM) | Drug excretion [5]: 0.79 µg/g | MIC (Staphylococcus aureus): 128 µg/mL (≈ 383 µM)

O=C(O)c1ccc2oc(NC(=O)c3cc(-c4cccc(OC(F)(F)F)c4)ccn3)nc2c1
IC50 (HeLa): 124 µg/mL (≈ 279 µM) | Ratio [1]: 512 | MIC (Clostridioides difficile): 0.03 µg/mL (≈ 0.0677 µM) | MIC (Staphylococcus aureus): 16 µg/mL (≈ 36.1 µM)

O=C(Nc1ncco1)c1cc(Oc2cccc(F)c2)ccn1
Cp [6]: Bld | Ratio [1]: > 256 | Ratio [3]: 2.4 | MIC (Clostridioides difficile): 1 µg/mL (≈ 3.34 µM) | Drug excretion [7]: 2.4 µg/g | MIC (Staphylococcus aureus): ≥ 256 µg/mL

O=C(Nc1ncco1)c1ccnc(Oc2ccc(Cl)c(Cl)c2)c1
IC50 (HeLa): 37 µg/mL (≈ 106 µM)

COC(=O)c1ccc2oc(NC(=O)c3cc(Oc4ccc(F)c(F)c4)ccn3)nc2c1
Ratio [1]: 256 | MIC (Clostridioides difficile): 0.25 µg/mL (≈ 0.588 µM) | MIC (Staphylococcus aureus): 64 µg/mL (≈ 150 µM)

O=C(Nc1ncco1)c1cc(Oc2cccc(OC(F)(F)F)c2)ccn1
MIC (Fusobacterium nucleatum): 8 µg/mL (≈ 21.9 µM) | MIC (Bacteroides fragilis): 8 µg/mL (≈ 21.9 µM) | MIC (Bifidobacterium longum): 16 µg/mL (≈ 43.8 µM) | MIC (Lactobacillus gasseri): > 16 µg/mL | Cp [6]: Bld | Ratio [1]: 64 | Ratio [3]: 49 | MIC (Eubacterium sp.): 8 µg/mL (≈ 21.9 µM) | MIC (Clostridioides difficile): 1 µg/mL (≈ 2.74 µM) | MIC (Corynebacterium): > 16 µg/mL | MIC [4]: 4 µg/mL (≈ 11 µM) | Drug excretion [7]: 49 µg/g | MIC (Veillonella): 16 µg/mL (≈ 43.8 µM) | MIC (Staphylococcus aureus): 64 µg/mL (≈ 175 µM)

O=C([O-])c1ccc2oc(NC(=O)c3cc(Oc4cccc(OC(F)(F)F)c4)ccn3)nc2c1.[Na+]
MIC (Fusobacterium nucleatum): 4 µg/mL | MIC (Bacteroides fragilis): 4 µg/mL | MIC (Bifidobacterium longum): 16 µg/mL | MIC (Lactobacillus gasseri): > 16 µg/mL | Cp [6]: Bld | Ratio [1]: 128 | Ratio [3]: 108 | MIC (Eubacterium sp.): 16 µg/mL | MIC (Clostridioides difficile): 0.125 µg/mL | MIC (Corynebacterium): 8 µg/mL | MIC [4]: 4 µg/mL | Drug excretion [7]: 13 µg/g | MIC (Veillonella): 16 µg/mL | MIC (Staphylococcus aureus): 16 µg/mL

O=C(Nc1ncco1)c1cc(Oc2ccc(F)c(F)c2)ccn1
Ratio [1]: 64 | MIC (Clostridioides difficile): 1 µg/mL (≈ 3.15 µM) | MIC (Staphylococcus aureus): 64 µg/mL (≈ 202 µM)

CCc1c(Cl)c(O)c(Cl)c(O)c1C(=O)O[C@H]1[C@H](O)[C@H](OC)[C@H](OC/C2=C\C=C\C[C@H](O)/C(C)=C/[C@H](CC)[C@@H](O[C@@H]3OC(C)(C)[C@@H](OC(=O)C(C)C)[C@H](O)[C@@H]3O)/C(C)=C/C(C)=C/C[C@@H]([C@@H](C)O)OC2=O)O[C@@H]1C [FIDAXOMICIN]
MIC (Fusobacterium nucleatum): < 0.0625 µg/mL | MIC (Bacteroides fragilis): > 32 µg/mL | MIC (Bifidobacterium longum): < 0.01 µg/mL | MIC (Lactobacillus gasseri): 2 µg/mL (≈ 1.89 µM) | MIC (Eubacterium sp.): 16 µg/mL (≈ 15.1 µM) | MIC (Clostridioides difficile): 0.0625 µg/mL (≈ 0.0591 µM) | MIC (Corynebacterium): < 0.0625 µg/mL | MIC [4]: > 32 µg/mL | MIC (Veillonella): 8 µg/mL (≈ 7.56 µM)

O=C(O)c1ccc2oc(NC(=O)c3cc(Oc4ccc(F)c(F)c4)ccn3)nc2c1 [listing 1 of 2 here]
MIC (Clostridioides difficile): 0.5 µg/mL (≈ 1.22 µM) | MIC (Staphylococcus aureus): 64 µg/mL (≈ 156 µM)

O=C(Nc1ncco1)c1cc(Oc2ccc(SC(F)(F)F)cc2)ccn1
Ratio [1]: > 256 | MIC (Clostridioides difficile): 1 µg/mL (≈ 2.62 µM) | MIC (Staphylococcus aureus): ≥ 256 µg/mL

O=C(O)c1ccc2oc(NC(=O)c3cc(Oc4ccc(F)c(F)c4)ccn3)nc2c1 [listing 2 of 2 here]
Ratio [1]: 128

O=C(O)c1ccc2oc(NC(=O)c3cc(-c4ccc(OC(F)(F)F)cc4)ccn3)nc2c1
IC50 (HeLa): 79.9 µg/mL (≈ 180 µM) | Ratio [1]: 256 | MIC (Clostridioides difficile): 0.03 µg/mL (≈ 0.0677 µM) | MIC (Staphylococcus aureus): 8 µg/mL (≈ 18 µM)

O=C(Nc1ncco1)c1cc(-c2ccc(F)c(Cl)c2)ccn1
Ratio [1]: 512 | MIC (Clostridioides difficile): 0.25 µg/mL (≈ 0.787 µM) | MIC (Staphylococcus aureus): 128 µg/mL (≈ 403 µM)
